Results as given in PubChem BioAssay AID330 (DTP/NCI, 2004).
Values joined by “and” are separate entries in the source; they are usually repeats but may differ in a detail not shown here. Equal entries are not always repeated. Toxic doses and inconclusive results are not listed. The calls were made as follows: active = survival T/C of 150% or more; inactive = T/C below 125% in these data.

Test system: P388 leukemia ip, CD2F1 mice, survival T/C
Experiment: NCI In Vivo Anticancer Drug Screen. Data for tumor model P388 Leukemia (intraperitoneal) in CD2F1 (CDF1) mice
Settings: endpoint: median survival time, higher = longer survival
Procedure, shortened: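 Mice carrying the transplanted tumor received test compound or vehicle. Survival was recorded in each group, and the value is the treated-group measurement divided by that of the vehicle-treated control group.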

[1] = dose: 50.0 mg/kg/injection, schedule: Q01DX009 (ip), vehicle: Klucel (hydroxypropylcellulose) (HPC)
[2] = dose: 100.0 mg/kg/injection, schedule: Q01DX009 (ip), vehicle: Klucel (hydroxypropylcellulose) (HPC)
[3] = dose: 200.0 mg/kg/injection, schedule: Q01DX009 (ip), vehicle: Klucel (hydroxypropylcellulose) (HPC)
[4] = dose: 50.0 mg/kg/injection, schedule: Q01DX005 (ip), vehicle: Klucel (hydroxypropylcellulose) (HPC)
[5] = dose: 100.0 mg/kg/injection, schedule: Q01DX005 (ip), vehicle: Klucel (hydroxypropylcellulose) (HPC)
[6] = dose: 200.0 mg/kg/injection, schedule: Q01DX005 (ip), vehicle: Klucel (hydroxypropylcellulose) (HPC)
[7] = dose: 100.0 mg/kg/injection, schedule: Q04DX003 (ip), vehicle: saline with Tween-80
[8] = dose: 50.0 mg/kg/injection, schedule: Q01DX005 (ip), vehicle: saline with Tween-80
[9] = dose: 100.0 mg/kg/injection, schedule: Q01DX005 (ip), vehicle: saline with Tween-80
[10] = dose: 50.0 mg/kg/injection, schedule: Q01DX009 (ip), vehicle: saline with Tween-80
[11] = dose: 100.0 mg/kg/injection, schedule: Q01DX009 (ip), vehicle: saline with Tween-80
[12] = dose: 25.0 mg/kg/injection, schedule: Q01DX005 (ip), vehicle: Klucel (hydroxypropylcellulose) (HPC)
[13] = dose: 200.0 mg/kg/injection, schedule: Q01DX009 (ip), vehicle: saline with Tween-80
[14] = dose: 400.0 mg/kg/injection, schedule: Q01DX009 (ip), vehicle: saline with Tween-80
[15] = dose: 100.0 mg/kg/injection, schedule: Q01DX001 (ip), vehicle: saline
[16] = dose: 200.0 mg/kg/injection, schedule: Q01DX001 (ip), vehicle: saline
[17] = dose: 12.5 mg/kg/injection, schedule: Q01DX009 (ip), vehicle: saline
[18] = dose: 25.0 mg/kg/injection, schedule: Q01DX009 (ip), vehicle: saline
[19] = dose: 50.0 mg/kg/injection, schedule: Q01DX009 (ip), vehicle: saline
[20] = dose: 100.0 mg/kg/injection, schedule: Q01DX009 (ip), vehicle: saline

Measured: T/C

Cc1cc(-c2ccc(N3C(=O)CC4(CCCC4)C3=O)c(C)c2)ccc1N1C(=O)CC2(CCCC2)C1=O
inactive: [1] 97 % of control | [2] 96 % of control | [3] 96 % of control

O=C1OCC2=Nc3cccc4cccc(c34)N12
inactive: [4] 101 % of control | [5] 94 % of control | [6] 98 % of control

CC(=O)OCC(=O)[C@@]1(O)CC[C@H]2[C@@H]3C[C@H](C)C4=CC(=O)CC[C@]4(C)[C@H]3[C@@H](O)C[C@@]21C
inactive: [7] 112 % of control | dose: 200.0 mg/kg/injection, schedule: Q04DX003 (ip), vehicle: saline with Tween-80 108 % of control | dose: 400.0 mg/kg/injection, schedule: Q04DX003 (ip), vehicle: saline with Tween-80 95 % of control

NC(=S)c1ccc(C=Nc2ccccc2)cc1
inactive: dose: 50.0 mg/kg/injection, schedule: Q01DX001 (ip), vehicle: Klucel (hydroxypropylcellulose) (HPC) 101 % of control | dose: 100.0 mg/kg/injection, schedule: Q01DX001 (ip), vehicle: Klucel (hydroxypropylcellulose) (HPC) 99 % of control | dose: 200.0 mg/kg/injection, schedule: Q01DX001 (ip), vehicle: Klucel (hydroxypropylcellulose) (HPC) 100 % of control

CCCCCCCCCCCC1=C(O)C(=O)C(I)=C(O)C1=O
inactive: [8] 108 % of control | [9] 100 % of control and 108 % of control | dose: 200.0 mg/kg/injection, schedule: Q01DX005 (ip), vehicle: saline with Tween-80 108 % of control

Cn1c(=O)c2nc(-c3ccccc3)c(-c3ccccc3)nc2n(C)c1=O
inactive: dose: 12.5 mg/kg/injection, schedule: Q01DX009 (ip), vehicle: saline with Tween-80 96 % of control | dose: 25.0 mg/kg/injection, schedule: Q01DX009 (ip), vehicle: saline with Tween-80 96 % of control | [10] 107 % of control | [11] 107 % of control

O=C(CN1CCOCC1)c1cc2c(c3ccccc13)CCCC2
inactive: [4] 94 % of control | [5] 99 % of control | [6] 96 % of control

CN(C(=O)c1ccccc1)C1CCCC(=O)CC1 (stereo unspecified)
inactive: [12] 105 % of control | [4] 100 % of control | [5] 99 % of control | [6] 97 % of control

CCn1c(C)nc([N+](=O)[O-])c1Sc1ncn[nH]1
inactive: [12] 118 % of control | [4] 115 % of control and 120 % of control | [5] 121 % of control

COc1cc(/C=C(/C)[N+](=O)[O-])cc(Br)c1OC
inactive: dose: 25.0 mg/kg/injection, schedule: Q04DX003 (ip), vehicle: saline with Tween-80 108 % of control | dose: 50.0 mg/kg/injection, schedule: Q04DX003 (ip), vehicle: saline with Tween-80 109 % of control | [7] 109 % of control

COc1ccc2nc3cc(Cl)ccc3c(Nc3ccc(NC(C)=O)cc3)c2n1
inactive: dose: 6.25 mg/kg/injection, schedule: Q01DX009 (ip), vehicle: other 106 % of control | dose: 12.5 mg/kg/injection, schedule: Q01DX009 (ip), vehicle: other 102 % of control | dose: 25.0 mg/kg/injection, schedule: Q01DX009 (ip), vehicle: other 100 % of control | dose: 50.0 mg/kg/injection, schedule: Q01DX009 (ip), vehicle: other 96 % of control | dose: 100.0 mg/kg/injection, schedule: Q01DX009 (ip), vehicle: other 99 % of control

CCOc1ccc(-n2c(=O)c(N=Nc3ccccc3Cl)c(O)n(-c3ccc(Br)cc3)c2=S)cc1
inactive: dose: 100.0 mg/kg/injection, schedule: Q04DX002 (ip), vehicle: saline with Tween-80 90 % of control | dose: 200.0 mg/kg/injection, schedule: Q04DX002 (ip), vehicle: saline with Tween-80 94 % of control | dose: 400.0 mg/kg/injection, schedule: Q04DX002 (ip), vehicle: saline with Tween-80 87 % of control

NC(=S=O)C(N)=S=O
inactive: [8] 103 % of control and 110 % of control | [9] 112 % of control and 117 % of control

CCOC(=O)c1cc([N+](=O)[O-])c[nH]1
inactive: [10] 97 % of control | [11] 96 % of control | [13] 95 % of control | [14] 89 % of control

CCON1CCC(OC(=O)CC)(c2ccccc2)C(C)C1 (stereo unspecified)
inactive: [15] 111 % of control | [16] 98 % of control

CC(=O)c1ccc(-c2ccc(C(C)=O)cc2)cc1
inactive: [10] 96 % of control | [11] 100 % of control | [13] 87 % of control | [14] 87 % of control

O=C(Oc1ccc[nH]c1=O)c1cc([N+](=O)[O-])cc([N+](=O)[O-])c1
inactive: [17] 99 % of control and 100 % of control | [18] 98 % of control and 107 % of control | [19] 99 % of control and 103 % of control | [20] 100 % of control | dose: 200.0 mg/kg/injection, schedule: Q01DX009 (ip), vehicle: saline 98 % of control and 101 % of control | dose: 400.0 mg/kg/injection, schedule: Q01DX009 (ip), vehicle: saline 100 % of control and 109 % of control

CCN(CC)C(=S)SCc1cc(C)c(O)c(C)c1
inactive: [15] 98 % of control | [16] 100 % of control | dose: 400.0 mg/kg/injection, schedule: Q01DX001 (ip), vehicle: saline 100 % of control

Cc1cc2nc(N)sc2cc1C
inactive: [17] 98 % of control | [18] 100 % of control | [19] 102 % of control | [20] 102 % of control

CC(=O)C[n+]1cccc(C)c1Sc1ccccc1
inactive: dose: 12.5 mg/kg/injection, schedule: Q01DX005 (ip), vehicle: saline with Tween-80 97 % of control | dose: 25.0 mg/kg/injection, schedule: Q01DX005 (ip), vehicle: saline with Tween-80 101 % of control | [8] 108 % of control and 94 % of control

CC(=O)OC1=NC(C)c2c1cc(OC(C)=O)nc2OC(C)=O (stereo unspecified)
inactive: [1] 104 % of control | [2] 102 % of control | [3] 102 % of control
